A word on the IC50: it is the concentration at which inhibition is half-maximal.

23 compounds from patent US20140255392A1 (BAYER INTELLECTUAL PROPERTY GMBH, priority 2011, published 2014) can be followed below.

This assay addresses T1, human kinase Mps-1 (Homo sapiens, UniProt P33981).
T1 construct: N-terminally GST-tagged human full length recombinant Mps-1 kinase; GST (N); purchased Invitrogen, Karslruhe, Germany PV4071
T1 sequence (P33981 1-857): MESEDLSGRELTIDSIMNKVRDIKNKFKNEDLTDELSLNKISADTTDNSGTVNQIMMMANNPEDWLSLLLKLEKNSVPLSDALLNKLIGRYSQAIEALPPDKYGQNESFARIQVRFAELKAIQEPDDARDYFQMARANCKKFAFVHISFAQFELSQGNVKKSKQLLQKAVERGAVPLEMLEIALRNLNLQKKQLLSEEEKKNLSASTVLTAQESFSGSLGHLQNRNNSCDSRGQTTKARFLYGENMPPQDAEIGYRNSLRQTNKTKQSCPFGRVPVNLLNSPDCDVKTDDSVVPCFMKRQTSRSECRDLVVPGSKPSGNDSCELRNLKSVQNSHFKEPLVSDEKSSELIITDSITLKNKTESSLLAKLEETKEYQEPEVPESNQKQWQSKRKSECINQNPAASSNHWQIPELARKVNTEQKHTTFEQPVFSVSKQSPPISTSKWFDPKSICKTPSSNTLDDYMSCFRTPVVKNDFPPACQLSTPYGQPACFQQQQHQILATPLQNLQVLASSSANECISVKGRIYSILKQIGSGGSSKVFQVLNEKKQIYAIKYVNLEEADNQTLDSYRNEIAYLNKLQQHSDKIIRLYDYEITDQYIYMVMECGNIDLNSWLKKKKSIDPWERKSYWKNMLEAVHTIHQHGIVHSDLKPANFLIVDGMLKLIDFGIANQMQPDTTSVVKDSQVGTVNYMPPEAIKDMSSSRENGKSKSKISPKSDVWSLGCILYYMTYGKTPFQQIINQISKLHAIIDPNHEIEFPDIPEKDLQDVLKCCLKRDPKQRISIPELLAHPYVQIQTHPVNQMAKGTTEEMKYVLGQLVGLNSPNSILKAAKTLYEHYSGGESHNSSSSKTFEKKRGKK
The assay is described as follows: Mps-1 kinase assay (TR-FRET). The format is biochemical. As to conditions: N-terminally GST-tagged human full length recombinant Mps-1; 10 μM ATP; 1 μM peptide substrate; 60 min at 22° C. As for the experimental part:
The human kinase Mps-1 phosphorylates a biotinylated substrate peptide. Detection of the phosphorylated product is achieved by time-resolved fluorescence resonance energy transfer (TR-FRET) from Europium-labelled anti-phospho-Serine/Threonine antibody as donor to streptavidin labelled with cross-linked allophycocyanin (SA-XLent) as acceptor. Compounds are tested for their inhibition of the kinase activity.
N-terminally GST-tagged human full length recombinant Mps-1 kinase (purchased from Invitrogen, Karslruhe, Germany, cat. no PV4071) was used. As substrate for the kinase reaction a biotinylated peptide of the amino-acid sequence […] (C-terminus in amide form, purchased from Biosynthan GmbH, Berlin) was used.
The concentration of Mps-1 in the assay was adjusted to the activity of the enzyme lot and was chosen appropriate to have the assay in the linear range, typical enzyme concentrations were in the range of about 1 nM (final conc. in the 5 μl assay volume).
The resulting mixture was incubated 1 h at 22° C. to allow the binding of the phosphorylated peptide to the anti-phospho(Ser/Thr)-Europium-antibody. Subsequently the amount of phosphorylated substrate was evaluated by measurement of the resonance energy transfer from the Europium-labelled anti-phospho(Ser/Thr) antibody to the Streptavidin-XLent.
Background: Time-resolved FRET reads energy transfer from a long-lived donor to a nearby acceptor.

Consider “N-cyclopropyl-4-{8-[(2,2-difluoroethyl)amino]-6-(2,5-difluorophenoxy)imidazo[1,2-a]pyridin-3-yl}-2-methylbenzamide [Example 166]”, for which the IC50 is 4.6 nM.

Regarding `Cc1cc(-c2cnc3c(NCCC(F)(F)F)cc(Oc4cccc(F)c4)cn23)ccc1C(=O)NC1(C)CC1` [Example 11, 4-{6-(3-Fluorophenoxy)-8-[(3,3,3-trifluoropropyl)amino]imidazo[1,2-a]pyridin-3-yl}-2-methyl-N-(1-methylcyclopropyl)benzamide], the IC50 was 3.8 nM.

On to `Cc1cc(-c2cnc3c(NCCC(F)(F)F)cc(Oc4ccc(OC(F)(F)F)c(F)c4)cn23)ccc1C(=O)NC1(C)CC1` [Example 85, 4-{6-[3-F luoro-4-(trifluoromethoxy)phenoxy]-8-[(3,3,3-trifluoropropyl)amino]imidazo[1,2-a]pyridin-3-yl}-2-methyl-N-(1-methylcyclopropyl)benzamide], for which the IC50 is 199 nM.

`Cc1cc(-c2cnc3c(NCCC(F)(F)F)cc(S(C)(=O)=O)cn23)ccc1C(=O)NC1CC1` [Example 5-1]: the half-inhibitory concentration (IC50) is 84.1 nM.

For `Cc1cc(-c2cnc3c(NCCC(F)(F)F)cc(Oc4cccc(Cl)c4)cn23)ccc1C(=O)NC1CC1` [Example 31, 4-{6-(3-chlorophenoxy)-8-[(3,3,3-trifluoropropyl)amino]imidazo[1,2-a]pyridin-3-yl}-N-cyclopropyl-2-methylbenzamide], the IC50 was determined as 1.3 nM.

For the compound `CCNC(=O)c1ccc(-c2cnc3c(NCCC(F)(F)F)cc(-c4ccccc4O)cn23)cc1C` [Example 134, N-ethyl-4-{6-(2-hydroxyphenyl)-8-[(3,3,3-trifluoropropyl)amino]imidazo[1,2-a]pyridin-3-yl}-2-methylbenzamide], the IC50 stood at 13.7 nM.

As to `CCNC(=O)c1ccc(-c2cc(NCCC(F)(F)F)c3ncc(-c4ccc(C(=O)NC5CC5)c(C)c4)n3c2)cc1C` [Example 148, 4-{3-[4-(cyclopropylcarbamoyl)-3-methylphenyl]-8-[(3,3,3-trifluoropropyl)amino]imidazo[1,2-a]pyridin-6-yl}-N-ethyl-2-methylbenzamide], the IC50 worked out at 1 nM.

With `CCc1cc(NCCC(F)(F)F)c2ncc(-c3ccc(C(=O)N[C@H]4C[C@@H]4C)c(C)c3)n2c1` (relative stereo) [Example 105, 4-{6-Ethyl-8-[(3,3,3-trifluoropropyl)amino]imidazo[1,2-a]pyridin-3-yl}-2-methyl-N-[rel-(1S,2S)-2-methylcyclopropyl]benzamide], the IC50 came out at 49.8 nM.

`CCc1cc(NCCC(F)(F)F)c2ncc(-c3ccc(C(=O)NC4(C#N)CC4)c(C)c3)n2c1` [Example 103]: the IC50 is 156 nM.

As to `CNC(=O)c1ccc(-c2cnc3c(NCCC(F)(F)F)cc(-c4ccccc4O)cn23)cc1C` [Example 133, 4-{6-(2-Hydroxyphenyl)-8-[(3,3,3-trifluoropropyl)amino]imidazo[1,2-a]pyridin-3-yl}-N,2-dimethylbenzamide], the IC50 is 12.6 nM.

Take `CNC(=O)c1ccc(-c2cnc3c(NCCC(F)(F)F)cc(C#CCO)cn23)cc1C` [Example 20, 4-{6-(3-hydroxyprop-1-yn-1-yl)-8-[(3,3,3-trifluoropropyl)amino]imidazo[1,2-a]pyridin-3-yl}-N,2-dimethylbenzamide]: the IC50 is 41.1 nM.

Regarding `CCNC(=O)c1ccc(-c2cc(NCCC(F)(F)F)c3ncc(-c4ccc(C(=O)NC)c(C)c4)n3c2)cc1C` [Example 159, 4-{6-[4-(ethylcarbamoyl)-3-methylphenyl]-8-[(3,3,3-trifluoropropyl)amino]imidazo[1,2-a]pyridin-3-yl}-N,2-dimethylbenzamide], the IC50 was found to be 9.1 nM.

As to `CCNC(=O)c1ccc(-c2cnc3c(NCCC(F)(F)F)cc(/C=C\CO)cn23)cc1C` [Example 120, N-ethyl-4-{6-[(12)-3-hydroxyprop-1-en-1-yl]-8-[(3,3,3-trifluoropropyl)amino]imidazo[1,2-a]pyridin-3-yl}-2-methylbenzamide], the IC50 stood at 42.2 nM.

For the compound `Cc1cc(-c2cnc3c(NCCC(F)(F)F)cc(Sc4cccc(F)c4)cn23)ccc1C(=O)NC1CC1` [Example 3-5], the IC50 stood at 0.8 nM.

`CCNC(=O)c1ccc(-c2cnc3c(NCCC(F)(F)F)cc(C(C)O)cn23)cc1C` (racemic) [Example 145, N-ethyl-4-{6-[(1RS)-1-hydroxyethyl]-8-[(3,3,3-trifluoropropyl)amino]imidazo[1,2-a]pyridin-3-yl}-2-methylbenzamide]: the IC50 worked out at 250 nM.

In the case of `CNC(=O)c1ccc(-c2cnc3c(NCCC(F)(F)F)cc(Oc4cccc(F)c4)cn23)cc1C` [Example 8, 4-{6-(3-Fluorophenoxy)-8-[(3,3,3-trifluoropropyl)amino]imidazo[1,2-a]pyridin-3-yl}-N,2-dimethylbenzamide], the IC50 was found to be 3.4 nM.

Take `CNC(=O)c1ccc(-c2cnc3c(NCCC(F)(F)F)cc(Oc4cccc(O)c4)cn23)cc1C` [Example 139, 4-{6-(3-Hydroxyphenoxy)-8-[(3,3,3-trifluoropropyl)amino]imidazo[1,2-a]pyridin-3-yl}-N,2-dimethylbenzamide]: the IC50 worked out at 1.1 nM.

As to `Cc1cc(-c2cnc3c(NCCC(F)(F)F)cc(Oc4cccc(Cl)c4)cn23)ccc1C(=O)NC1(C)CC1` [Example 36, 4-{6-(3-chlorophenoxy)-8-[(3,3,3-trifluoropropyl)amino]imidazo[1,2-a]pyridin-3-yl}-2-methyl-N-(1-methylcyclopropyl)benzamide], the IC50 is 11.1 nM.

With `Cc1cc(-c2cnc3c(NCCC(F)(F)F)cc(Oc4ccc(OC(F)(F)F)cc4)cn23)ccc1C(=O)NC1(C#N)CC1` [Example 65, N-(1-cyanocyclopropyl)-2-methyl-4-{6-[4-(trifluoromethoxy)phenoxy]-8-[(3,3,3-trifluoropropyl)amino]imidazo[1,2-a]pyridin-3-yl}benzamide], the IC50 amounted to 131 nM.

Consider `Cc1cc(-c2cnc3c(NCCC(F)(F)F)cc(Sc4ccccc4O)cn23)ccc1C(=O)NC1CC1` [Example 3-6, N-cyclopropyl-4-{6-[(2-hydroxyphenyl)sulfanyl]-8-[(3,3,3-trifluoropropyl)amino]imidazo[1,2-a]pyridin-3-yl}-2-methylbenzamide], for which the IC50 came out at 0.4 nM.

For `Cc1cc(-c2cnc3c(NCCC(F)(F)F)cc(-c4ccncc4)cn23)ccc1C(=O)NC1CC1` [Example 2-2, N-cyclopropyl-2-methyl-4-{6-(pyridin-4-yl)-8-[(3,3,3-trifluoropropyl)amino]imidazo [1,2-a]pyridin-3-yl} benzamide], the IC50 turned out to be 0.3 nM.

For the compound `Cc1cc(-c2cnc3c(NCC(F)F)cc(Oc4cccc(F)c4F)cn23)ccc1C(=O)NC1CC1` [Example 163, N-cyclopropyl-4-{8-[(2,2-difluoroethyl)amino]-6-(2,3-difluorophenoxy)imidazo[1,2-a]pyridin-3-yl}-2-methylbenzamide], the 50% inhibitory concentration (IC50) was determined as 1.3 nM.

On to `CNC(=O)c1ccc(-c2cnc3c(NCCC(F)(F)F)cc(-c4ccc(C(=O)NC5(C#N)CC5)c(C)c4)cn23)cc1C` [Example 156, 4-(6-{4-[(1-cyanocyclopropyl)carbamoyl]-3-methylphenyl}-8-[(3,3,3-trifluoropropyl)amino]imidazo[1,2-a]pyridin-3-yl)-N,2-dimethylbenzamide], for which the IC50 is 21.3 nM.
